Measurements reported in patent publication US5770617A, “Terbenzimidazoles useful as antifungal agents” (Rutgers, The State University of New Jersey, priority 1997, dated 1998).
Entries after “also recorded” stand apart in the source; their conditions may differ.

target: T1, calf thymus topoisomerase I (Bos taurus, UniProt F1MN93); experiment: Topoisomerase I-mediated DNA cleavage assay (calf thymus enzyme); type: biochemical; conditions: concentration relative to Hoechst 33342 (arbitrarily 1) producing the same cleavage on plasmid DNA; calf thymus topoisomerase I
T1 construct: DNA topoisomerase I was purified from calf thymus gland as reported previously; from tissue; host or cells: calf thymus gland
T1 sequence (F1MN93 1-767): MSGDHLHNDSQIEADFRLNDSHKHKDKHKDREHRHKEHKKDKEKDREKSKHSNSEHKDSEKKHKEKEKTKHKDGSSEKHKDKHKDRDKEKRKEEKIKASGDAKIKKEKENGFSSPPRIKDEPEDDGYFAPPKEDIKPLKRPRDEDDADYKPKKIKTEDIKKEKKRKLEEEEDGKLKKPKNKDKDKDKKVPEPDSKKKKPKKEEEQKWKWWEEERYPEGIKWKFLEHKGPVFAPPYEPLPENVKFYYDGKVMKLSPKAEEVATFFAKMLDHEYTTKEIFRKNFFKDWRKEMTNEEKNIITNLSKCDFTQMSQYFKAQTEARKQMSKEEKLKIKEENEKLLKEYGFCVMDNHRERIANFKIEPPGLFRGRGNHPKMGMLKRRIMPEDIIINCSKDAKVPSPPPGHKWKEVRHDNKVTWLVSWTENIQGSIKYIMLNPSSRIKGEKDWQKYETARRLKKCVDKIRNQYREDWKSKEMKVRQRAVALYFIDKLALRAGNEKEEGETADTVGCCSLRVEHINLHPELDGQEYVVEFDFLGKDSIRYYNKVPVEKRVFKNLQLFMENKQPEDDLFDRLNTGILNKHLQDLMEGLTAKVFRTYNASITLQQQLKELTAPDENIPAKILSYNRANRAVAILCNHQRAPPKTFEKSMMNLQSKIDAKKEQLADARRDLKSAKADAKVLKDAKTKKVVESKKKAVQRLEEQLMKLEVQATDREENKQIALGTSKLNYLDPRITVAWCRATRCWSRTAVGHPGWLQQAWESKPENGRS
Excerpt: A. Topoisomerase I-Mediated DNA Cleavage Assays
DNA topoisomerase I was purified from calf thymus gland as reported previously by B. D. Halligan et al., J. Biol. Chem., 260, 2475 (1985).
Plasmid YEpG was also purified by the alkali lysis method followed by phenol deproteination and CsCl/ethidium isopycnic centrifugation as described by T. Maniatis et al., Molecular Cloning, A Laboratory Manual, Cold Spring Harbor Labs, N.Y. (1982) at pages 149-185. The end-labeling of the plasmid was accomplished as previously described by L. F. Liu et al., J. Biol. Chem., 258, 15365 (1983). The cleavage assays were performed as previously reported by A. Y. Chen et al., Cancer Res., 53, 1332 (1993). Human topoisomerase I was isolated as a recombinant fusion protein using a T7 expression system.

Structure (SMILES) | Topo I-mediated DNA cleavage (REC, Relative Effective Concentration)
Clc1ccc2[nH]c(-c3ccc4[nH]c(-c5ccc6[nH]cnc6c5)nc4c3)nc2c1 [JSKIV-68, 5-Chloro-2-[2'-(benzimidazol-5"-yl)benzimidazol-5'-yl]-benzimidazole] | 1
c1ccc(-c2ccc3[nH]c(-c4ccc5[nH]c(-c6ccc7[nH]cnc7c6)nc5c4)nc3c2)nc1 [Compound 14, 5-(2-Pyridyl)-2-[2'-(benzimidazol-5"-yl)benzimidazol-5'-yl]benzimidazole] | 3.3
c1cc(-c2ccc3[nH]c(-c4ccc5[nH]c(-c6ccc7[nH]cnc7c6)nc5c4)nc3c2)ccn1 [Compound 16, 5-(4-Pyridyl)-2-[2'-(benzimidazol-5"-yl)benzimidazol-5'-yl]benzimidazole] | 2
N#Cc1ccc2[nH]c(-c3ccc4[nH]cnc4c3)nc2c1 [Compound 19, 5-Cyano-2-(benzimidazol-5'-yl)benzimidazole] | 1000
c1ccc2[nH]c(-c3ccc4[nH]c(-c5ccc6[nH]cnc6c5)nc4c3)nc2c1 [Compound 10, 2-[2'-(Benzimidazol-5"-yl)benzimidazol-5'-yl]benzimidazole] | 1.1
c1cncc(-c2ccc3[nH]c(-c4ccc5[nH]c(-c6ccc7[nH]cnc7c6)nc5c4)nc3c2)c1 [Compound 15, 5-(3-Pyridyl)-2-[2'-(benzimidazol-5"-yl)benzimidazol-5'-yl]benzimidazole] | 2
Clc1ccc(-c2ccc3[nH]c(-c4ccc5[nH]c(-c6ccc7[nH]cnc7c6)nc5c4)nc3c2)cc1 [JSKIV-47, 5-(p-Chlorophenyl)-2-[2'-(benzimidazol-5"-yl)benzimidazol-5'-yl]-benzimidazole] | 10

target: T2, Aspergillus topoisomerase I (Aspergillus nidulans, UniProt Q5BGS7); experiment: Topoisomerase I cleavage assay, Aspergillus enzyme; type: biochemical; conditions: DNA cleavage assay
T2 construct: about 105 kDa by phosphate transfer
T2 sequence (Q5BGS7 1-871): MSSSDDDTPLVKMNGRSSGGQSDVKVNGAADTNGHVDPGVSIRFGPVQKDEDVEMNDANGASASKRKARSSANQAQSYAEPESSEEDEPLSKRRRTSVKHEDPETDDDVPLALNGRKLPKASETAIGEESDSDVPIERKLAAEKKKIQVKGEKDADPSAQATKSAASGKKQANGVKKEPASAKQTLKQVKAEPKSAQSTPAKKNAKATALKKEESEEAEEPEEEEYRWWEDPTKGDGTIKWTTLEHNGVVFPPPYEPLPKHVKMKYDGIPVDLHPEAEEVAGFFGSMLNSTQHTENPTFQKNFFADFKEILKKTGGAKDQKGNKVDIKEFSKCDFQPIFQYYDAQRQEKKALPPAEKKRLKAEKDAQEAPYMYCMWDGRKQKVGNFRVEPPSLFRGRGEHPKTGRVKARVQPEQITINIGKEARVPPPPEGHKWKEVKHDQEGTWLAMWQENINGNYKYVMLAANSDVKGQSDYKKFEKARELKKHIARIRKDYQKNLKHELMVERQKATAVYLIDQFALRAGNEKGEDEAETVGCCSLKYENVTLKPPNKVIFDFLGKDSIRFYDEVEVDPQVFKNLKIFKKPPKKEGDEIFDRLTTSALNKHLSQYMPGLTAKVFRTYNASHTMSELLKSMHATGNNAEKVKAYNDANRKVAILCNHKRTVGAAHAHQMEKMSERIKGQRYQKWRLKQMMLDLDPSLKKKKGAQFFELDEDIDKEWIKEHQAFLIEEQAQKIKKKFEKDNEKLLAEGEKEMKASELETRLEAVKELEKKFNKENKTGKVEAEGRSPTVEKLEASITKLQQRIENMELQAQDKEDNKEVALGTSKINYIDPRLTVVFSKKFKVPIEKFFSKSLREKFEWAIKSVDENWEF
Experimental: Two liters of YG medium (0.5% yeast extract and 2% glucose) were inoculated with approximately 5×10^8 conidia/ml. After 16 hours of growth at 37° C., the mycelia were collected, washed with Buffer I (50 mM Tris-HCl, pH 7.7, 1 mM EDTA, 1 mM EGTA, 10% glycerol, 1 mM phenylmethylsulfonyl fluoride and 1 mM 2-mercaptoethanol), and quickly chilled in liquid nitrogen. The frozen mycelia (approximately 20 grams) were ground to powder and resuspended in 300 ml of Buffer I. The lysate was centrifuged at 10K rpm in a Sorval HB3 Rotor for 15 minutes to remove cell debris. The supernatant was made 6% in polyethylene glycol (v/v) and 1M NaCl. After one hour on ice with gentle stirring, the solution was centrifuged at 14K rpm in a Sorvall Rotor for 30 minutes to remove nucleic acids.
Subsequent steps in purification were the same as described previously for purification of recombinant human DNA topoisomerase I (B. Gatto et al., Cancer Res., 56, 2795 (1996)). Briefly, the supernatant was chromatographed directly onto a hydroxyapatite Bio-gel HTP (BioRad Laboratories, Richmond, Calif.) column. Fractions containing relaxation activity were pooled, diluted and then loaded onto a BioRex70 column (BioRad Laboratories, Richmond, Calif.). The column was developed with a linear gradient from 0.2 to 1M KCl. The peak fractions were pooled and dialyzed overnight at 4° C. against 30 mM potassium phosphate, 50% glycerol (v/v), 0.5 mM EDTA, and 1 mM DTT. Recombinant human topoisomerase I was purified from Escherichia coli BL21 (DE3) harboring PET1B as described previously (Gatto et al., Cancer Res., 56, 2795 (1996)).
DNA topoisomerase I cleavage assays were performed as described by Y.-H. Hsiang et al., J. Biol. Chem., 260, 14873 (1985). YEpG DNA was linearized with BamHI and then 3 '-end-labeled with Klenow polymerase and α[-^32 P]dCTP. Following phenol extraction and ethanol precipitation, the labeled DNA was resuspended in 10 mM Tris, pH 8.0, and 1 mM EDTA. The DNA cleavage assay was done in a reaction mixture (20 μl) containing 40 mM Tris-HCl, pH 7.8, 100 mM KCl, 10 mM MgCl2, 0.5 mM dithiothreitol, 0.5 mM EDTA, 30 μg/ml bovine serum albumin, 20 ng of labeled YEpG DNA, and […] of Aspergillus or human topoisomerase I diluted to various extents. Following incubation at 23° C. for 15 minutes, the reactions were terminated by the addition of SDS (final concentration 1%) and proteinase K (final concentration 200 μg/ml). Proteinase K treatment continued at 37° C. for another 1 hour. The terminated reactions were either alkali-denatured and then loaded (alkaline loading) or loaded directedly in neutral loading buffer (neutral loading) onto a 1% agarose gel in neutral TPE electrophoresis solution. Gel drying and autoradiography were performed as described by Hsiang et al., cited above.

Structure (SMILES) | inhibition (poisoning) of Aspergillus topoisomerase I, in words
CCOc1ccc(-c2nc3ccc(-c4nc5cc(CCCN(C)C)ccc5[nH]4)cc3[nH]2)cc1 [compound 2 wherein n is 3] | selective sensitivity
COc1cc2cc3c4cc(OC)c(OC)cc4cc[n+]3c(C)c2cc1OC [coralyne] | completely resistant; also recorded: did not inhibit Aspergillus topoisomerase I to any significant extent
N=C(N)c1ccc(N=NNc2ccc(C(=N)N)cc2)cc1 [Berenil, berenil] | inactive
COc1ccc(-c2nc3ccc(C(F)(F)F)cc3[nH]2)cc1 [QS/II/50] | None of the mono-benzimidazoles, including QS/II/50, QS/II/51, QS/II/59A, an QS/II/9, exhibited any inhibitory effect

target: T3, human topoisomerase I (Homo sapiens, UniProt P11387); experiment: not given; conditions: cited from earlier work
T3 construct: made in house; host or cells: Escherichia coli BL21 (DE3) harboring PET1B
T3 sequence (P11387 1-765): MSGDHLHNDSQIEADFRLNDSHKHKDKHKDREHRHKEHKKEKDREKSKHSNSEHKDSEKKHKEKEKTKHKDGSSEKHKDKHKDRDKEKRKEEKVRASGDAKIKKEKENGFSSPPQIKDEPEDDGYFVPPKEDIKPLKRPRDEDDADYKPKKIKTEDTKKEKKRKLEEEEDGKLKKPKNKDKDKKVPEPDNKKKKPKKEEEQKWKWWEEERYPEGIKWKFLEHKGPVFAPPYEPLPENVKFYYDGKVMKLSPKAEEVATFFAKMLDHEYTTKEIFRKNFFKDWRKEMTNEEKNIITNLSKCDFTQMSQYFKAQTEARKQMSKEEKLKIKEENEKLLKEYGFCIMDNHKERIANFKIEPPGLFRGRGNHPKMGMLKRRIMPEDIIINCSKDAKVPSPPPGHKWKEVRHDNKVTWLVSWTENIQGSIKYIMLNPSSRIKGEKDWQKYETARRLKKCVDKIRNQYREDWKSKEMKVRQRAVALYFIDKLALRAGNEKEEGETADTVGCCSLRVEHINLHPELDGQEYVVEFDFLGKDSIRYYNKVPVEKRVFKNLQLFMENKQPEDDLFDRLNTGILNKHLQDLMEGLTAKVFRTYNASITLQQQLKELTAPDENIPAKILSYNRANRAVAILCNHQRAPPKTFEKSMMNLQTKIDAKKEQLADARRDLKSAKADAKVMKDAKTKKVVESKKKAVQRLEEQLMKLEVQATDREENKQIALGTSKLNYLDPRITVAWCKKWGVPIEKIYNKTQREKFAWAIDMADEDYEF

Structure (SMILES) | inhibition of human topoisomerase I, in words (known / previously disclosed)
COc1cc2cc3c4cc(OC)c(OC)cc4cc[n+]3c(C)c2cc1OC [coralyne] | highly potent inhibitors
N=C(N)c1ccc(N=NNc2ccc(C(=N)N)cc2)cc1 [Berenil, berenil] | inactive
